In ChEMBL document CHEMBL1143494 (Bioorg Med Chem Lett, 2005):

Assays:
[1] = biological target: 72 kDa type IV collagenase (Homo sapiens, UniProt P08253); experiment: Inhibitory concentration against MMP-2
Homo sapiens = species on record: Homo sapiens; experiment: Ratio of the inhibitory concentration against MMP-2 to that of MMP-13
[2] = biological target: Matrix metalloproteinase-9 (Homo sapiens) (UniProt P14780); experiment: Percent inhibition at 25 uM against MMP-9
[3] = biological target: Matrix metalloproteinase-14 (Homo sapiens, UniProt P50281)
Description: Inhibitory concentration against MMP-14

Interstitial collagenase = biological target: T1, Interstitial collagenase (Homo sapiens, UniProt P03956); experiment: Inhibitory concentration against MMP-1
T1 sequence (P03956 whole entry): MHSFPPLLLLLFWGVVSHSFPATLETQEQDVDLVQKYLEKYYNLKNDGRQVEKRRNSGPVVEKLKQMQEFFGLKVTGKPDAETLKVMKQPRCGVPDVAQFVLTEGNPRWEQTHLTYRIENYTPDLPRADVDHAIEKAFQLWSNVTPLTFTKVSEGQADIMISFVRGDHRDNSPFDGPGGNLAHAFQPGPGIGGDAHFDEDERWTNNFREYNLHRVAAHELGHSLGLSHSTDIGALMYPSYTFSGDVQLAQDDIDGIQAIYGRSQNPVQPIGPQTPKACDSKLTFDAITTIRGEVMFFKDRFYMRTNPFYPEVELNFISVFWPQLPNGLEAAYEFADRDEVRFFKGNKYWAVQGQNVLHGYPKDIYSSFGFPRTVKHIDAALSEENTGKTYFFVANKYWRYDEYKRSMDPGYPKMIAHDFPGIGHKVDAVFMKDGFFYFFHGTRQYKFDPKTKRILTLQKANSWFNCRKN

[4] = biological target: T2, Disintegrin and metalloproteinase domain-containing protein 17 (Homo sapiens, UniProt P78536); experiment: Percent inhibition at 25 uM against TACE
Matrilysin = biological target: T3, Matrilysin (Homo sapiens, UniProt P09237); experiment: Inhibitory concentration against MMP-7
T3 sequence (P09237 whole entry): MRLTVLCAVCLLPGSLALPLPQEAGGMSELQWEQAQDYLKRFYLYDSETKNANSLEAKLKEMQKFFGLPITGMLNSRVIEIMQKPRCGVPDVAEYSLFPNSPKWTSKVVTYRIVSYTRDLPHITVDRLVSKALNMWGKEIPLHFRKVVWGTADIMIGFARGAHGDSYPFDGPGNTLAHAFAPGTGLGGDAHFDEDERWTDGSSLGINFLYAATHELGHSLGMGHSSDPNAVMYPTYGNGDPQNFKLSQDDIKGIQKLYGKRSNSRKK

[5] = biological target: T4, A disintegrin and metalloproteinase with thrombospondin motifs 4 (Homo sapiens, UniProt O75173); experiment: Inhibitory concentration against Aggrecanase 1
T4 sequence (O75173 whole entry): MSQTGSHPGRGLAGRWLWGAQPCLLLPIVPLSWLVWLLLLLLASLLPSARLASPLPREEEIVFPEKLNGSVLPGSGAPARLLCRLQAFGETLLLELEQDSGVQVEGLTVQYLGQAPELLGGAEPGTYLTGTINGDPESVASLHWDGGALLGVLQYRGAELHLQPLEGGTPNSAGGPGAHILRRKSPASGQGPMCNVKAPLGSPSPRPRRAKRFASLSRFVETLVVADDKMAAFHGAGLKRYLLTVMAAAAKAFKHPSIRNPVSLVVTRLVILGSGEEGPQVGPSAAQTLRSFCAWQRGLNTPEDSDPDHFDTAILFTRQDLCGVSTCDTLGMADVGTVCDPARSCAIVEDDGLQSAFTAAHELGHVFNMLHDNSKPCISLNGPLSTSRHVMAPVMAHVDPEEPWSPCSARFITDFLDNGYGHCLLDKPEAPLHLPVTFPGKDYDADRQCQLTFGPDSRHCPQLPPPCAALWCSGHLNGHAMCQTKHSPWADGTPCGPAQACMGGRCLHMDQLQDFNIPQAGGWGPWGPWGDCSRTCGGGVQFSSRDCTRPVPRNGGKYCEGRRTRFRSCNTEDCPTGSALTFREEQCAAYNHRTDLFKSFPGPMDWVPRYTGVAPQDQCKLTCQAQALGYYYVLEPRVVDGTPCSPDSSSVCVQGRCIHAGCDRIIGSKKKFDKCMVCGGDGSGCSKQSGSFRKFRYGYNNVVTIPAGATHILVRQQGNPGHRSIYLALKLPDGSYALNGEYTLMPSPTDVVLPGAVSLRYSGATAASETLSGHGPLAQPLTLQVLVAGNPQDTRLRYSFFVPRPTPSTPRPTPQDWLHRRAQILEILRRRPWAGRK

Stromelysin-1 = Stromelysin-1 (Homo sapiens, UniProt P08254); experiment: Inhibitory concentration against MMP-3
Neutrophil collagenase = Neutrophil collagenase (Homo sapiens, UniProt P22894); experiment: Inhibitory concentration against MMP-8
Collagenase 3 = Collagenase 3 (Homo sapiens, UniProt P45452); experiment: Inhibitory concentration against MMP-13
[6] = biological target: T2, Disintegrin and metalloproteinase domain-containing protein 17; experiment: Inhibitory concentration against TACE

Sequence of Matrix metalloproteinase-9 (Homo sapiens) (P14780 whole entry): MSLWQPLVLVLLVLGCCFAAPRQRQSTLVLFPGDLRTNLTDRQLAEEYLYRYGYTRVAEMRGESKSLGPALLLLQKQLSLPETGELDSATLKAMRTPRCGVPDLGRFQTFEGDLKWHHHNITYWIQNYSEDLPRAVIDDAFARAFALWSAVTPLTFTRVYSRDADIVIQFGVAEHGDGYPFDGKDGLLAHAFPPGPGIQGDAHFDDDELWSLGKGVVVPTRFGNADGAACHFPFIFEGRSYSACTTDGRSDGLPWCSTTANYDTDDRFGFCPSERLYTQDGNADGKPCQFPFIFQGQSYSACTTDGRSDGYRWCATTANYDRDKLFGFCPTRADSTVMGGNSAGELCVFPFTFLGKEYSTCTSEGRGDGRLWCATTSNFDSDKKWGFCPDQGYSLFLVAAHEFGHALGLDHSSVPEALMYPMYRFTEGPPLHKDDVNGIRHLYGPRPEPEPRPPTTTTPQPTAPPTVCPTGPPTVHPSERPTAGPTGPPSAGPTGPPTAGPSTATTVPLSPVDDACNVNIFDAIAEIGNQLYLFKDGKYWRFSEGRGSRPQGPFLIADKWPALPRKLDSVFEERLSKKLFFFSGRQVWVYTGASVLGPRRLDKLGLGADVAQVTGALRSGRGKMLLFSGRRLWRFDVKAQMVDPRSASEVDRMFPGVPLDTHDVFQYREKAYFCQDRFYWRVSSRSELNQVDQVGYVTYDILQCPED
T2 sequence (P78536 whole entry, the tested form may be a part): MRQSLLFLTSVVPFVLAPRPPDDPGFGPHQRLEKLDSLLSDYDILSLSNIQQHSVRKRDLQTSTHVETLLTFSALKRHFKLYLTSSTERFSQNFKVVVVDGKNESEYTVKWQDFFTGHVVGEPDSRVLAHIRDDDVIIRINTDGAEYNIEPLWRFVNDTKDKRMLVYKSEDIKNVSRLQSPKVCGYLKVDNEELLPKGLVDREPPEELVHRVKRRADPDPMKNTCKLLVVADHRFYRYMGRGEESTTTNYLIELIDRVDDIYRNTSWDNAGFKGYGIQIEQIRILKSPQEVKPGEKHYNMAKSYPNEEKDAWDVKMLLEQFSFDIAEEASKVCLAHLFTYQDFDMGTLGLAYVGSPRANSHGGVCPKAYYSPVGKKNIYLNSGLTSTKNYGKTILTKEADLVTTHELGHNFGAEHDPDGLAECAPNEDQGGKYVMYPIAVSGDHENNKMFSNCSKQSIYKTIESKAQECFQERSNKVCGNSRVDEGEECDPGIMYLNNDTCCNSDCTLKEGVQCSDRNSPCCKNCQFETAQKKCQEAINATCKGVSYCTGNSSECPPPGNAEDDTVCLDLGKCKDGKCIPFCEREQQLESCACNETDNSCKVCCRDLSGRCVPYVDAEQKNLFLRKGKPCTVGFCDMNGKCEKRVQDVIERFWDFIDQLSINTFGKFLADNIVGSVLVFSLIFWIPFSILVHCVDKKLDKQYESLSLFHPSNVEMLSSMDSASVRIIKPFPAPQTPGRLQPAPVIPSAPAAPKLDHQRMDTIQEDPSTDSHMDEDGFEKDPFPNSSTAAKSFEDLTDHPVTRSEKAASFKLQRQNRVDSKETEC
Sequence of 72 kDa type IV collagenase (P08253 whole entry): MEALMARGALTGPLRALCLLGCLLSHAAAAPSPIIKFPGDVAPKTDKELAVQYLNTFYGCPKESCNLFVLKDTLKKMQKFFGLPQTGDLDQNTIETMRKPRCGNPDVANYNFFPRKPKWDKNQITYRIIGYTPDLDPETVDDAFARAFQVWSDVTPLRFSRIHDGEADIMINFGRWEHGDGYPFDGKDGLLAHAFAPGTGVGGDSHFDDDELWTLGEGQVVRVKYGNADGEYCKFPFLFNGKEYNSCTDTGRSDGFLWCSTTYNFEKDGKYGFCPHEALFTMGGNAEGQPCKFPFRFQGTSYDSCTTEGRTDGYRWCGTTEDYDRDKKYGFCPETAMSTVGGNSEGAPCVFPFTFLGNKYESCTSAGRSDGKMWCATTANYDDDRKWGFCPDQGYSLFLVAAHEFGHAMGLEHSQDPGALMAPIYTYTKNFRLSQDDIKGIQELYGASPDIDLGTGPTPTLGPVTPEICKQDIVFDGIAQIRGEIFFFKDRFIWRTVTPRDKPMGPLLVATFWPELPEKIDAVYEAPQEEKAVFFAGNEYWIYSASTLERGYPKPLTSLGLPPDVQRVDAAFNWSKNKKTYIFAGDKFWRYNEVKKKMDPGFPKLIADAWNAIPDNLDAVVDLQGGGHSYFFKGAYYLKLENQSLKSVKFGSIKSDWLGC
Sequence of Neutrophil collagenase (P22894 whole entry): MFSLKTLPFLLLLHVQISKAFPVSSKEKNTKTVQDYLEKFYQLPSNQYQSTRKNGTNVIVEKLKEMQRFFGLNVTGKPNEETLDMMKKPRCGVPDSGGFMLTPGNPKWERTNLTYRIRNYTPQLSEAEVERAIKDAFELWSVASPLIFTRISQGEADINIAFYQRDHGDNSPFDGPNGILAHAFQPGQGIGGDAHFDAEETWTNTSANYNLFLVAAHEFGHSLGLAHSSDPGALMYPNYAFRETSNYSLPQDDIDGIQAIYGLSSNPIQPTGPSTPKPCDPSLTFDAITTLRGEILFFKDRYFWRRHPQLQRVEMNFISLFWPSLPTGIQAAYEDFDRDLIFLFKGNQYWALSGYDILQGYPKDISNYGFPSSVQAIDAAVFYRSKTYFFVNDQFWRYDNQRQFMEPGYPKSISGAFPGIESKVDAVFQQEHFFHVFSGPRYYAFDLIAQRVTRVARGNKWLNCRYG
Sequence of Stromelysin-1 (P08254 whole entry): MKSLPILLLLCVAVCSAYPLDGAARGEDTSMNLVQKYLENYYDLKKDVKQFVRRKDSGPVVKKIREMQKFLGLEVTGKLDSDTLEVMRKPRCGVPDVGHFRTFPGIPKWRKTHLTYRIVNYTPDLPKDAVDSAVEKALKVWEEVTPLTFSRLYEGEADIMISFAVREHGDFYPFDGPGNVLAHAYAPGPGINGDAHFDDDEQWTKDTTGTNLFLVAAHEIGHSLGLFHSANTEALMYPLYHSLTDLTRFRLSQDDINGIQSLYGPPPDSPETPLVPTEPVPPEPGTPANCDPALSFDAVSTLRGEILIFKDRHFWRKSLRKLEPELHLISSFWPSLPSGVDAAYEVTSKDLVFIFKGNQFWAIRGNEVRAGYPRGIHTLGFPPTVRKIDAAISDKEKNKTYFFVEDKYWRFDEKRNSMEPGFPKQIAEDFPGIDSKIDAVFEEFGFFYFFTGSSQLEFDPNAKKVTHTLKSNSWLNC

**Q.** Which IC50 [1] does the source give for `CC(C)[C@@H](NS(=O)(=O)c1ccc(-c2ccc(NC(=O)c3cc4ccccc4o3)cc2)cc1)C(=O)O` here?
**A.** The IC50 was 4.6 nM.

**Q.** `CC(=O)c1ccc2oc(C(=O)Nc3ccc(-c4ccc(S(=O)(=O)N[C@H](C(=O)O)C(C)C)cc4)cc3)c(C)c2c1O` was tested. Which Ratio (Homo sapiens) did it give?
**A.** Its Ratio is 20.

**Q.** For `COc1c(C#N)ccc2oc(C(=O)Nc3ccc(-c4ccc(S(=O)(=O)N[C@H](C(=O)O)C(C)C)cc4)cc3)c(C)c12`, which Ratio (Homo sapiens) is on record?
**A.** The Ratio was 175.

**Q.** How did the inhibition [2] turn out when `Cc1c(C(=O)Nc2ccc(-c3ccc(S(=O)(=O)N[C@H](C(=O)O)C(C)C)cc3)cc2)oc2ccc(Cl)c(OC(C)C)c12` was run?
**A.** Its inhibition is 51%.

**Q.** And the Ratio (Homo sapiens)?
**A.** Its Ratio is 275.

**Q.** And the IC50 [3]?
**A.** Its IC50 is 50000 nM.

**Q.** And the IC50 (Interstitial collagenase)?
**A.** The IC50 was 37100 nM.

**Q.** And the inhibition [4]?
**A.** Its inhibition is 98%.

**Q.** And the IC50 (Matrilysin)?
**A.** Its IC50 is 1640 nM.

**Q.** And the IC50 [5]?
**A.** The IC50 was 14300 nM.

**Q.** What about the IC50 (Stromelysin-1) of the same compound?
**A.** The IC50 was 1090 nM.

**Q.** And the IC50 (Neutrophil collagenase)?
**A.** Its IC50 is 110 nM.

**Q.** Which results are given for `CCc1ccc2oc(C(=O)Nc3ccc(-c4ccc(S(=O)(=O)N[C@H](C(=O)O)C(C)C)cc4)cc3)c(C)c2c1O`?
**A.** inhibition [2]: 55%; Ratio (Homo sapiens): 250; IC50 [3]: 15800 nM; IC50 (Interstitial collagenase): 23400 nM; inhibition [4]: 42%; IC50 (Matrilysin): 458 nM; IC50 [5]: 4400 nM; IC50 (Stromelysin-1): 492 nM; IC50 (Neutrophil collagenase): 94 nM

**Q.** With `CC(C)[C@H](NS(=O)(=O)c1ccc(-c2ccc(NC(=O)c3cc4cc(Br)ccc4o3)cc2)cc1)C(=O)O` as the compound, how does the Ratio (Homo sapiens) read?
**A.** Its Ratio is 1.

**Q.** And the IC50 (Collagenase 3)?
**A.** The IC50 was 0.61 nM.

**Q.** For `CCc1ccc2oc(C(=O)Nc3ccc(-c4ccc(S(=O)(=O)N[C@H](C(=O)O)C(C)C)cc4)cc3)c(C)c2c1OCc1ccccc1`, which Ratio (Homo sapiens) is on record?
**A.** The Ratio was 65.

**Q.** Which results are given for `COc1c(Br)ccc2oc(C(=O)Nc3ccc(-c4ccc(S(=O)(=O)N[C@@H](C(=O)O)C(C)C)cc4)cc3)c(C)c12`?
**A.** IC50 [1]: 688 nM; Ratio (Homo sapiens): 202; IC50 (Collagenase 3): 3.4 nM

**Q.** For `COc1c(Br)ccc2oc(C(=O)Nc3ccc(-c4ccc(S(=O)(=O)N[C@H](C(=O)O)C(C)C)cc4)cc3)cc12`, which IC50 [1] is on record?
**A.** The IC50 was 7.1 nM.

**Q.** And the Ratio (Homo sapiens)?
**A.** The Ratio was 18.

**Q.** And the IC50 (Collagenase 3)?
**A.** Its IC50 is 0.4 nM.

**Q.** `COc1c(CO)ccc2oc(C(=O)Nc3ccc(-c4ccc(S(=O)(=O)N[C@H](C(=O)O)C(C)C)cc4)cc3)c(C)c12` was tested. Which IC50 [1] did it give?
**A.** Its IC50 is 1410 nM.

**Q.** What about the Ratio (Homo sapiens) of the same compound?
**A.** Its Ratio is 180.

**Q.** And the IC50 (Collagenase 3)?
**A.** The IC50 was 7.8 nM.

**Q.** Which IC50 [1] does the source give for `Cc1c(C(=O)Nc2ccc(-c3ccc(S(=O)(=O)N[C@@H](C(=O)O)C(C)C)cc3)cc2)oc2ccccc12` here?
**A.** The IC50 was 164 nM.

**Q.** What about the Ratio (Homo sapiens) of the same compound?
**A.** The Ratio was 10.

**Q.** And the IC50 (Collagenase 3)?
**A.** Its IC50 is 17 nM.

**Q.** With `CCc1ccc2oc(C(=O)Nc3ccc(-c4ccc(S(=O)(=O)N[C@H](C(=O)O)C(C)C)cc4)cc3)c(C)c2c1OC` as the compound, how does the inhibition [2] read?
**A.** The inhibition was 64%.

**Q.** And the Ratio (Homo sapiens)?
**A.** Its Ratio is 660.

**Q.** And the IC50 [3]?
**A.** The IC50 was 30000 nM.

**Q.** What about the IC50 (Interstitial collagenase) of the same compound?
**A.** The IC50 was 28000 nM.

**Q.** And the inhibition [4]?
**A.** Its inhibition is 43%.

**Q.** What about the IC50 (Matrilysin) of the same compound?
**A.** Its IC50 is 1260 nM.

**Q.** What about the IC50 [5] of the same compound?
**A.** The IC50 was greater than 15000 nM.

**Q.** And the IC50 (Stromelysin-1)?
**A.** Its IC50 is 561 nM.

**Q.** And the IC50 (Neutrophil collagenase)?
**A.** Its IC50 is 101 nM.

**Q.** Which results are given for `CC(C)[C@H](NS(=O)(=O)c1ccc(-c2ccc(NC(=O)c3oc4ccccc4c3-c3ccccc3)cc2)cc1)C(=O)O`?
**A.** IC50 [1]: 1200 nM; Ratio (Homo sapiens): 6

**Q.** Which results are given for `COc1c(I)ccc2oc(C(=O)Nc3ccc(-c4ccc(S(=O)(=O)N[C@H](C(=O)O)C(C)C)cc4)cc3)c(C)c12`?
**A.** inhibition [2]: 51%; Ratio (Homo sapiens): 650; IC50 [3]: 30000 nM; IC50 (Interstitial collagenase): 60000 nM; inhibition [4]: 38%; IC50 (Matrilysin): 3010 nM; IC50 [5]: 15000 nM; IC50 (Stromelysin-1): 1060 nM; IC50 (Neutrophil collagenase): 404 nM

**Q.** `CCc1ccc2oc(C(=O)Nc3ccc(-c4ccc(S(=O)(=O)N[C@H](C(=O)O)C(C)C)cc4)cc3)c(C)c2c1OC(C)C` was tested. Which Ratio (Homo sapiens) did it give?
**A.** The Ratio was 260.

**Q.** How did the Ratio (Homo sapiens) turn out when `Cc1c(C(=O)Nc2ccc(-c3ccc(S(=O)(=O)N[C@H](C(=O)O)C(C)C)cc3)cc2)oc2ccccc12` was run?
**A.** The Ratio was 44.

**Q.** `COc1c(Cl)ccc2oc(C(=O)Nc3ccc(-c4ccc(S(=O)(=O)N[C@H](C(=O)O)C(C)C)cc4)cc3)c(C)c12` was tested. Which Ratio (Homo sapiens) did it give?
**A.** The Ratio was 785.

**Q.** With `COc1cccc2oc(C(=O)Nc3ccc(-c4ccc(S(=O)(=O)N[C@H](C(=O)O)C(C)C)cc4)cc3)cc12` as the compound, how does the Ratio (Homo sapiens) read?
**A.** Its Ratio is 7.

**Q.** Which results are given for `COc1c(C)ccc2oc(C(=O)Nc3ccc(-c4ccc(S(=O)(=O)N[C@H](C(=O)O)C(C)C)cc4)cc3)c(C)c12`?
**A.** inhibition [2]: 76%; Ratio (Homo sapiens): 330; IC50 [3]: 15000 nM; IC50 (Interstitial collagenase): 37100 nM; inhibition [4]: 39%; IC50 (Matrilysin): 534 nM; IC50 [5]: 8600 nM; IC50 (Stromelysin-1): 442 nM; IC50 (Neutrophil collagenase): 52 nM

**Q.** How did the Ratio (Homo sapiens) turn out when `COc1cccc2oc(C(=O)Nc3ccc(-c4ccc(S(=O)(=O)N[C@H](C(=O)O)C(C)C)cc4)cc3)c(C)c12` was run?
**A.** Its Ratio is 110.

**Q.** Which Ratio (Homo sapiens) does the source give for `Cc1c(C(=O)Nc2ccc(-c3ccc(S(=O)(=O)N[C@H](C(=O)O)C(C)C)cc3)cc2)oc2ccc(Br)cc12` here?
**A.** The Ratio was 27.

**Q.** Which Ratio (Homo sapiens) does the source give for `CCc1c(C(=O)Nc2ccc(-c3ccc(S(=O)(=O)N[C@H](C(=O)O)C(C)C)cc3)cc2)oc2ccccc12` here?
**A.** The Ratio was 32.

**Q.** And the IC50 (Collagenase 3)?
**A.** Its IC50 is 55 nM.

**Q.** For `COc1c(Br)ccc2oc(C(=O)Nc3ccc(-c4ccc(S(=O)(=O)N[C@H](C(=O)O)C(C)C)cc4)cc3)c(C)c12`, which inhibition [2] is on record?
**A.** Its inhibition is 66%.

**Q.** What about the Ratio (Homo sapiens) of the same compound?
**A.** Its Ratio is 740.

**Q.** What about the IC50 [3] of the same compound?
**A.** The IC50 was 15000 nM.

**Q.** And the IC50 (Matrilysin)?
**A.** Its IC50 is 866 nM.

**Q.** And the IC50 [6]?
**A.** The IC50 was 34000 nM.

**Q.** What about the IC50 [5] of the same compound?
**A.** The IC50 was 5600 nM.

**Q.** What about the IC50 (Stromelysin-1) of the same compound?
**A.** The IC50 was 144 nM.

**Q.** And the IC50 (Neutrophil collagenase)?
**A.** Its IC50 is 73 nM.
